Results on 21 molecules are retold here after patent US20260285863A1, “COMPOUNDS CAPABLE OF MODULATING GPR65” (Pathios Therapeutics Limited, priority 2023, published 2026).

Molecules are shown by their SMILES.

The term IC50 denotes the concentration that inhibits the measured activity by half.

T1 sequence (Q8IYL9 whole entry): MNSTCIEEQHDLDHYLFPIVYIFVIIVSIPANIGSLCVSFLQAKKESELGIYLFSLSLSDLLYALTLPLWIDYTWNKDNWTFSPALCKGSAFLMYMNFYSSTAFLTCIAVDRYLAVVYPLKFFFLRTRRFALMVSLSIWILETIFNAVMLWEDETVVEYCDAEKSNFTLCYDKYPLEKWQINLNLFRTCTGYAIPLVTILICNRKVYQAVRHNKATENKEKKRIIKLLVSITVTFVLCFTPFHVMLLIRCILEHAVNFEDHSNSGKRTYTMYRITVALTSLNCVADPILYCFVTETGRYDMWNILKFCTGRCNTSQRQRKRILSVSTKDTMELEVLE

This test addresses T1, human recombinant GPR65 (Homo sapiens, UniProt Q8IYL9).
T1 construct: host or cells: 1321N1 human astrocytoma cells (1321N1-hrGPR65)
Description: Human GPR65 cAMP HTRF antagonist assay. The class given is cell-based. Conditions: 1321N1-hrGPR65 cells, assay pH 7.2, cAMP HTRF; read-out: hGPR65 IC50. From the text: The “Human GPR65 cyclic adenosine monophosphate (cAMP) Homogeneous Time Resolved Fluorescence (HTRF) antagonist assay”, or simply “cAMP assay”, as described in the accompanying examples, can be used to measure the potency of GPR65 modulators, which is expressed as the concentration of compound required to reduce the increase in cAMP concentration upon GPR65 activation by 50% (i.e. an IC50).
Human GPR65 Cyclic Adenosine Monophosphate (cAMP) Homogeneous Time Resolved Fluorescence (HTRF) Antagonist Assay Procedure
IC50data was obtained by the following procedure:
1321N1 human astrocytoma cells stably expressing human recombinant GPR65 (1321N1-hrGPR65 cells, EuroscreenFast) were cultured according to the vendor's instructions.
Compounds were tested for their ability to antagonise GPR65, through measuring the concentration of cytoplasmic cAMP following treatment of the cells at a pH of 7.2 to activate GPR65 signalling and addition of the compound to be tested. The extent to which the expected rise in cAMP concentration upon GPR65 activation was suppressed by the added compound is indicative of its potency. The assay was carried out according to EuroscreenFast assay Methodology as follows.
On the day of the assay, test compounds were added to 384-well, low volume, white microtiter plates by acoustic dispensing. KRH buffer (5 mM KCl, 1.25 mM MgSO4, 124 mM NaCl, 25 mM HEPES, 13.3 mM Glucose, 1.25 mM KH2PO4 and 1.45 mM CaCl2) was adjusted to pH 6.5, pH 7.6 and pH 8.4 by adding NaOH. 1321N1-hGPR65 cells were rapidly thawed and diluted in KRH, pH 7.6 prior to centrifugation at 300×g for 5 min and resuspension in assay buffer (KRH, pH 7.6, supplemented with 1 mM 3-isobutyl-1-methylxanthine (IBMX) and 200 μM ethylenediaminetetraacetic acid (EDTA)). Cells were added to assay plates at a density of 2,000 cells per well in a volume of […]. Assay plates were briefly centrifuged at 100×g and then incubated at room temperature for 30 min. Cells were stimulated by the addition of 5 μL KRH, pH 6.5, to achieve an assay pH of 7.2, while control wells received […] KRH, pH 8.4 to achieve an assay pH of 7.9. Assay plates were briefly centrifuged at 100×g and then incubated at room temperature for 30 min.
Accumulation of cAMP was detected by cAMP HTRF kit (Cisbio). d2-labeled cAMP and cryptate-labeled anti-cAMP antibody in Lysis and Detection Buffer (Cisbio) were added to assay plates, and the plates were incubated at room temperature for 1 h. HTRF measurements were performed using a Pherastar FSX instrument. Acceptor and donor emission signals were measured at 665 nm and 620 nm, respectively, and HTRF ratios were calculated as signal665 nm/signal620 nm×104. Data were normalised to high and low control values and fitted with 4-parameter logistic regression to determine hGPR65 IC50 values for the test compounds, which are shown in Table 1.
(In general: In TR-FRET formats the signal depends on donor and acceptor labels being close together.)
For `O=C(Nc1cc(Cl)c(-c2ccc(OCC3CN(CC(F)(F)F)C3)nc2)cc1F)N1[C@H]2CC[C@@H]1c1c[nH]c(=O)cc1C2` [Compound 32, (6S,9R)-N-(5-chloro-2-fluoro-4-(6-((1-(2,2,2-trifluoroethyl)azetidin-3-yl)methoxy)pyridin-3-yl)phenyl)-3-oxo-3,5,6,7,8,9-hexahydro-2H-6,9-epiminocyclohepta[c]pyridine-10-carboxamide], the IC50 was under 500 nM.

Regarding `Cn1ncc2cc(-c3cc(F)c(NC(=O)N4[C@H]5CC[C@@H]4c4c[nH]c(=O)cc4C5)cc3Cl)ccc21` [Compound 37, (6S,9R)-N-(5-chloro-2-fluoro-4-(1-methyl-1H-indazol-5-yl)phenyl)-3-oxo-3,5,6,7,8,9-hexahydro-2H-6,9-epiminocyclohepta[c]pyridine-10-carboxamide], the half-inhibitory concentration (IC50) was under 500 nM.

As for `O=C(Nc1cc(Cl)c(-c2ccc(OCC3CC3(F)F)nc2)cc1F)N1[C@H]2CC[C@@H]1c1c[nH]c(=O)cc1C2` (stereo partly drawn) [Compound 38, (6S,9R)-N-(5-chloro-4-(6-((2,2-difluorocyclopropyl)methoxy)pyridin-3-yl)-2-fluorophenyl)-3-oxo-3,5,6,7,8,9-hexahydro-2H-6,9-epiminocyclohepta[c]pyridine-10-carboxamide], the IC50 is under 500 nM.

On to `CN(CC(F)(F)F)c1ccnc(-c2cc(F)c(NC(=O)N3[C@H]4CC[C@@H]3c3c[nH]c(=O)cc3C4)cc2Cl)c1` [Compound 39, (6S,9R)-N-(5-chloro-2-fluoro-4-(4-(methyl(2,2,2-trifluoroethyl)amino)pyridin-2-yl)phenyl)-3-oxo-3,5,6,7,8,9-hexahydro-2H-6,9-epiminocyclohepta[c]pyridine-10-carboxamide], for which the 50% inhibitory concentration (IC50) was under 500 nM.

Take `O=C(Nc1cc(Cl)c(-c2ccc(CC(F)(F)F)nc2)cc1F)N1[C@H]2CC[C@@H]1c1c[nH]c(=O)cc1C2` [Compound 40, (6S,9R)-N-(5-chloro-2-fluoro-4-(6-(2,2,2-trifluoroethyl)pyridin-3-yl)phenyl)-3-oxo-3,5,6,7,8,9-hexahydro-2H-6,9-epiminocyclohepta[c]pyridine-10-carboxamide]: the concentration for half-maximal inhibition (IC50) was under 500 nM.

Turning to `O=C(Nc1cc(Cl)c(-c2ccc(OCC3CCOC3)nc2)cc1F)N1[C@H]2CC[C@@H]1c1n[nH]c(=O)cc1C2` (stereo partly drawn) [Compound 41, (6S,9R)-N-(5-chloro-2-fluoro-4-(6-((tetrahydrofuran-3-yl)methoxy)pyridin-3-yl)phenyl)-3-oxo-3,5,6,7,8,9-hexahydro-2H-6,9-epiminocyclohepta[c]pyridazine-10-carboxamide], the IC50 was under 500 nM.

As for `O=C(Nc1cc(Cl)c(Cl)cn1)N1[C@@H]2CC[C@H]1[C@@H](F)c1c2ccnc1F` [Compound 42, (5R,8S,9S)-N-(4,5-dichloropyridin-2-yl)-1,9-difluoro-6,7,8,9-tetrahydro-5H-5,8-epiminocyclohepta[c]pyridine-10-carboxamide], the IC50 is under 500 nM.

For `CN(CC(F)(F)F)c1cc(-c2cc(F)c(NC(=O)N3[C@H]4CC[C@@H]3c3c[nH]c(=O)cc3C4)cc2Cl)ccn1` [Compound 43, (6S,9R)-N-(5-chloro-2-fluoro-4-(2-(methyl(2,2,2-trifluoroethyl)amino)pyridin-4-yl)phenyl)-3-oxo-3,5,6,7,8,9-hexahydro-2H-6,9-epiminocyclohepta[c]pyridine-10-carboxamide], the IC50 was under 500 nM.

`O=C(Nc1cc(Cl)c(Cl)cn1)N1[C@H]2CC[C@@H]1c1ccncc1C2` [Compound 44, (5R,8S)-N-(4,5-dichloropyridin-2-yl)-6,7,8,9-tetrahydro-5H-5,8-epiminocyclohepta[c]pyridine-10-carboxamide]: the IC50 is under 500 nM.

Turning to `N#Cc1cc(NC(=O)N2[C@H]3CC[C@@H]2c2ccnc(F)c2C3)c(F)cc1Cl` [Compound 45, (5R,8S)-N-(4-chloro-5-cyano-2-fluorophenyl)-1-fluoro-6,7,8,9-tetrahydro-5H-5,8-epiminocyclohepta[c]pyridine-10-carboxamide], the 50% inhibitory concentration (IC50) is under 500 nM.

Take `O=C(Nc1ccc(Cl)cc1F)N1[C@H]2CC[C@@H]1c1ccnc(F)c1C2` [Compound 46, (5R,8S)-N-(4-chloro-2-fluorophenyl)-1-fluoro-6,7,8,9-tetrahydro-5H-5,8-epiminocyclohepta[c]pyridine-10-carboxamide]: the half-maximal inhibitory concentration (IC50) was under 500 nM.

For `O=C(Nc1cc(Cl)c(Cl)cc1F)N1[C@H]2CC[C@@H]1c1ccncc1C2` [Compound 49, (5R,8S)-N-(4,5-dichloro-2-fluorophenyl)-6,7,8,9-tetrahydro-5H-5,8-epiminocyclohepta[c]pyridine-10-carboxamide], the concentration for half-maximal inhibition (IC50) is under 500 nM.

On to `O=C(Nc1cc(Cl)c(C(F)(F)F)cc1F)N1[C@H]2CC[C@@H]1c1ccncc1C2` [Compound 50, (5R,8S)-N-(5-chloro-2-fluoro-4-(trifluoromethyl)phenyl)-6,7,8,9-tetrahydro-5H-5,8-epiminocyclohepta[c]pyridine-10-carboxamide], for which the 50% inhibitory concentration (IC50) is under 500 nM.

As for `O=C(Nc1cc(Cl)c(COc2ccc(F)cn2)cc1F)N1[C@H]2CC[C@@H]1c1n[nH]c(=O)cc1C2` [Compound 51, (6S,9R)-N-(5-Chloro-2-fluoro-4-(((5-fluoropyridin-2-yl)oxy)methyl)phenyl)-3-oxo-3,5,6,7,8,9-hexahydro-2H-6,9-epiminocyclohepta[c]pyridazine-10-carboxamide], the IC50 is under 500 nM.

For the molecule `O=C(Nc1cc(Cl)c(COc2cccc(F)n2)cc1F)N1[C@H]2CC[C@@H]1c1n[nH]c(=O)cc1C2` [Compound 52, (6S,9R)-N-(5-Chloro-2-fluoro-4-(((6-fluoropyridin-2-yl)oxy)methyl)phenyl)-3-oxo-3,5,6,7,8,9-hexahydro-2H-6,9-epiminocyclohepta[c]pyridazine-10-carboxamide], the concentration for half-maximal inhibition (IC50) was under 500 nM.

Regarding `O=C(Nc1cc(Cl)c(COc2ccccc2)cc1F)N1[C@H]2CC[C@@H]1c1c[nH]c(=O)cc1C2` [Compound 53, (6S,9R)-N-(5-chloro-2-fluoro-4-(phenoxymethyl)phenyl)-3-oxo-3,5,6,7,8,9-hexahydro-2H-6,9-epiminocyclohepta[c]pyridine-10-carboxamide], the IC50 is under 500 nM.

Regarding `O=C(Nc1cc(Cl)c(COc2ccc(OCC(F)(F)F)cn2)cc1F)N1[C@H]2CC[C@@H]1c1c[nH]c(=O)cc1C2` [Compound 54, (6S,9R)-N-(5-chloro-2-fluoro-4-(((5-(2,2,2-trifluoroethoxy)pyridin-2-yl)oxy)methyl)phenyl)-3-oxo-3,5,6,7,8,9-hexahydro-2H-6,9-epiminocyclohepta[c]pyridine-10-carboxamide], the IC50 is under 500 nM.

As to `O=C(Nc1cc(Cl)c(COc2ccc(OCC(F)(F)F)cn2)cc1F)N1[C@H]2CC[C@@H]1c1n[nH]c(=O)cc1C2` [Compound 55, (6S,9R)-N-(5-Chloro-2-fluoro-4-(((5-(2,2,2-trifluoroethoxy)pyridin-2-yl)oxy)methyl)phenyl)-3-oxo-3,5,6,7,8,9-hexahydro-2H-6,9-epiminocyclohepta[c]pyridazine-10-carboxamide], the half-inhibitory concentration (IC50) was under 500 nM.

As to `O=C(Nc1cc(Cl)c(COc2cccc(OCC(F)(F)F)n2)cc1F)N1[C@H]2CC[C@@H]1c1n[nH]c(=O)cc1C2` [Compound 56, (6S,9R)-N-(5-chloro-2-fluoro-4-(((6-(2,2,2-trifluoroethoxy)pyridin-2-yl)oxy)methyl)phenyl)-3-oxo-3,5,6,7,8,9-hexahydro-2H-6,9-epiminocyclohepta[c]pyridazine-10-carboxamide], the concentration for half-maximal inhibition (IC50) was under 500 nM.

As to `O=C(Nc1cc(Cl)c(COc2cccc(OCC(F)(F)F)n2)cc1F)N1[C@H]2CC[C@@H]1c1c[nH]c(=O)cc1C2` [Compound 57, (6S,9R)-N-(5-chloro-2-fluoro-4-(((6-(2,2,2-trifluoroethoxy)pyridin-2-yl)oxy)methyl)phenyl)-3-oxo-3,5,6,7,8,9-hexahydro-2H-6,9-epiminocyclohepta[c]pyridine-10-carboxamide], the IC50 is under 500 nM.

On to `O=C(Nc1cc(Cl)c(COc2ccc(OC3CCCC3)cn2)cc1F)N1[C@H]2CC[C@@H]1c1c[nH]c(=O)cc1C2` [Compound 58, (6S,9R)-N-(5-chloro-4-(((5-(cyclopentyloxy)pyridin-2-yl)oxy)methyl)-2-fluorophenyl)-3-oxo-3,5,6,7,8,9-hexahydro-2H-6,9-epiminocyclohepta[c]pyridine-10-carboxamide], for which the half-maximal inhibitory concentration (IC50) is under 500 nM.
